Measured values taken from publication PMC3259734 (ACS medicinal chemistry letters, 2011).
In brackets after ≈: the same amount, converted by molar mass. Several values for one entry are separate records, joined by “and”; a condition that tells them apart may be missing. Identical values can stand only once.

Legend:
M. tuberculosis H37Rv [1] = test: DHNA rescue of growth of treated M. tuberculosis; format: cell-based, Mycobacterium tuberculosis; conditions: DHNA 100 μg/ml added to the media; compound at 2xMIC
Cytotoxicity assays = format: cell-based
M. tuberculosis H37Rv [2] = test: Antibacterial activity; format: cell-based, Mycobacterium tuberculosis; conditions: in words
MenB [3] = biological target: T1, MenB (Mycobacterium tuberculosis, UniProt P9WNP5); test: biochemical; conditions: for ability to inhibit MenB: analogues still able to undergo elimination
T1 sequence (P9WNP5 whole entry): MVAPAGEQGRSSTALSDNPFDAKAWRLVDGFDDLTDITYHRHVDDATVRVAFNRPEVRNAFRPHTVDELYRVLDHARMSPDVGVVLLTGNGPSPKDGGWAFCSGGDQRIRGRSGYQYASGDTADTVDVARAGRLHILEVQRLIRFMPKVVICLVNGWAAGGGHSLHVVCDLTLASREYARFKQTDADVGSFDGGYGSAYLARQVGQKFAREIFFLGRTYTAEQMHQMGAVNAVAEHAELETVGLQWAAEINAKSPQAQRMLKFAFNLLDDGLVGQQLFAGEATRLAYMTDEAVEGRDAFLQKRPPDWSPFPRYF

MenB [4] = biological target: T1, MenB; test: Steady state kinetics of MenB inhibition; format: biochemical; conditions: steady state kinetic methods
MenE = test: Direct MenE inhibition assay; format: biochemical; conditions: MenE 100 nM; data not shown
[5] = tested on: nonreplicating M. tuberculosis (NRP-MTB); conditions: against NRP-MTB; cited from earlier work

Which “rescue of growth by DHNA” value (M. tuberculosis H37Rv [1]) does the source give for `COC(=O)/C=C/C(=O)c1ccc(F)cc1` [Compound 2b] here?
The value was “rescue the growth”.

And the selectivity ratio (Cytotoxicity assays)?
The selectivity ratio was over 20.

Which results are given for `O=C(O)/C=C/C(=O)c1ccc(Cl)cc1` [Compound 3a]?
antibacterial activity (M. tuberculosis H37Rv [2]): limited antibacterial activity; change of IC50 for MenB inhibition with CoA concentration (MenB [3]; data not shown): decreased as the concentration of CoA increased

What does the source list for `COC(=O)/C=C/C(=O)c1ccc(Cl)cc1` [Compound 3b, 4-Oxo-4-chlorophenylbutenoyl methyl ester]?
rescue of growth by DHNA (M. tuberculosis H37Rv [1]): rescue the growth; selectivity ratio (Cytotoxicity assays): > 20

With `CC(C(=O)c1ccc(Cl)cc1)C(N[C@@H](C)c1ccccc1)C(=O)O` (stereo partly drawn) [Compound 7S] as the compound, how does the “ability to inhibit MenB” value (MenB [3]) read?
Its value is “retained the ability to inhibit MenB”.

For `CC(C)(COP(=O)(O)OP(=O)(O)OC[C@H]1O[C@@H](n2cnc3c(N)ncnc32)[C@H](O)[C@@H]1OP(=O)(O)O)[C@@H](O)C(=O)NCCC(=O)NCCSC(CC(=O)c1ccc(Cl)cc1)C(=O)O` (stereo partly drawn) [Compound 7], which “mode of MenB inhibition” value (MenB [4]) is on record?
The value was “noncompetitive (mixed)”.

For `[2H]C([2H])(C(=O)c1ccccc1Cl)C(N[C@@H](C)c1ccccc1)C(=O)O` (stereo partly drawn) [Compound 8S], which “ability to inhibit MenB” value (MenB [3]) is on record?
The value was “retained the ability to inhibit MenB”.

For `CC(C)(COP(=O)(O)OP(=O)(O)OC[C@H]1O[C@@H](n2cnc3c(N)ncnc32)[C@H](O)[C@@H]1OP(=O)(O)O)[C@@H](O)C(=O)NCCC(=O)NCCSC(CC(=O)c1ccccc1Cl)C(=O)O` (stereo partly drawn) [Compound 10], which “mode of MenB inhibition” value (MenB [4]) is on record?
Its value is “noncompetitive (mixed)”.

Which results are given for `CC(C)(COP(=O)(O)OP(=O)(O)OC[C@H]1O[C@@H](n2cnc3c(N)ncnc32)[C@H](O)[C@@H]1OP(=O)(O)O)[C@@H](O)C(=O)NCCC(=O)NCCSC(CC(=O)c1ccc(Cl)cc1Cl)C(=O)O` (stereo partly drawn) [Compound 16]?
mode of MenB inhibition (MenB [4]): noncompetitive (mixed); IC50 (MenB [3]; IC50, 2-CoA-4-oxo-4-phenylbutanoic acids and analogues, Table 2): ~100 nM and 100 nM

Which “concentration up to which MenB was not (significantly) inhibited” value (MenB [3]) does the source give for `CC(C)(COP(=O)(O)OP(=O)(O)OC[C@H]1O[C@@H](n2cnc3c(N)ncnc32)[C@H](O)[C@@H]1OP(=O)(O)O)[C@@H](O)C(=O)NCCC(=O)NCCSCCC(=O)c1ccc(Cl)cc1Cl` [Compound 18] here?
The value was over 400 µM.

With `CC(NC(CC(=O)c1ccc(F)cc1)C(=O)O)c1ccccc1` (stereo not drawn) [Compound 1548L21] as the compound, how does the “concentration up to which MenE was not inhibited” value (MenE) read?
Its value is over 300 µM.

For `CO[C@H]1/C=C/O[C@@]2(C)Oc3c(C)c(O)c4c(O)c(c(/C=N/N5CCN(C)CC5)c(O)c4c3C2=O)NC(=O)/C(C)=C\C=C\[C@H](C)[C@H](O)[C@@H](C)[C@@H](O)[C@@H](C)[C@H](OC(C)=O)[C@@H]1C` [rifampicin], which MIC [5] is on record?
The MIC was 0.4 µg/mL (≈ 0.486 µM).
